Measured values reported in PMC11561307, “Ultra-inert lanthanide chelates as mass tags for multiplexed bioanalysis” (Nature Communications, 2024).

Experiment: Kinetic inertness: acid-assisted dechelation in excess HCl
Assay type: physicochemical
Conditions: for half-life, h / half-life: Figure 2A; for t½ (0.1 M HCl, 25 °C) / t½ (0.1 M HCl, 80 °C) / t½ (1.0 M HCl, 80 °C) / t½ (6.0 M HCl, 80 °C): dechelation half-life, HPLC-UV after 1 h, 1 day, 1 week, 1 month, ± error of the fit; for t½ (0.1 M HCl, 25 °C) / t½ (0.1 M HCl, 80 °C): 0.5 mM chelate in 0.1 M HCl; for t½ (0.1 M HCl, 25 °C) / t½ (0.1 M HCl, 80 °C) / t½ (1.0 M HCl, 80 °C): exponential decay fit; for t½ (1.0 M HCl, 80 °C): 0.5 mM chelate in 1.0 M HCl; for abundance of intact chelate: section above Supp. Fig 16, head with acid, temperature and time not given; for t½ (6.0 M HCl, 80 °C): 0.5 mM chelate in 6.0 M HCl, fit y = exp(−x/t), t½ = ln(2) × t

Row | Compound | half-life, h (1.0 M HCl, 80 °C) | t½ (0.1 M HCl, 25 °C) (25 °C) | t½ (0.1 M HCl, 80 °C) (80 °C) | t½ (1.0 M HCl, 80 °C) (80 °C) | abundance of intact chelate [%] | t½ (6.0 M HCl, 80 °C) (80 °C) | other results
1 | O=C([O-])CN1CCN2CCN(CC(=O)[O-])CCN(CC1)Cc1cccc(n1)-c1cnnn1Cc1cc(-c3ccccc3)cc(n1)C2.[Yb+3] [Ph{Yb}] | too stable | too stable | too stable | too stable | 100.0 |  | half-life, h (0.1 M HCl, 25 °C): too stable; half-life, h (0.1 M HCl, 80 °C): too stable; half-life (6.0 M HCl, 80 °C): 4690 h
2 | O=C([O-])CN1CCN2CCN(CC(=O)[O-])CCN(CC1)Cc1cccc(n1)-c1cnnn1Cc1cc(-c3ccccc3)cc(n1)C2.[Nd+3] [Ph{Nd}] | too unstable |  |  | too unstable |  | too unstable | half-life (0.1 M HCl, 25 °C): 179 h; half-life (0.1 M HCl, 80 °C): 2.55 h; half-life, h (6.0 M HCl, 80 °C): too unstable
3 | O=C([O-])CN1CCN2CCN(CC(=O)[O-])CCN(CC1)Cc1cccc(n1)-c1cnnn1Cc1cc(-c3ccccc3)cc(n1)C2.[Lu+3] [Ph{Lu}] | too stable | too stable | too stable | too stable | 100.0 |  | estimated half-life (6.0 M HCl at 80 °C): ~3 years; half-life, h (0.1 M HCl, 25 °C): too stable; half-life, h (0.1 M HCl, 80 °C): too stable; half-life (6.0 M HCl, 80 °C): 25300 h
4 | O=C([O-])CN1CCN2CCN(CC(=O)[O-])CCN(CC1)Cc1cccc(n1)-c1cn(nn1)Cc1cc(-c3ccccc3)cc(n1)C2.[Gd+3] [1,4-cz-[Gd(PhL1)]] |  |  | too unstable | too unstable | 97.8 | too unstable | 
5 | O=C([O-])CN1CCN2CCN(CC(=O)[O-])CCN(CC1)Cc1cccc(n1)-c1cnnn1Cc1cc(-c3ccccc3)cc(n1)C2.[Pr+3] [Ph{Pr}] | too unstable |  |  | too unstable |  | too unstable | half-life (0.1 M HCl, 25 °C): 51.7 h; half-life (0.1 M HCl, 80 °C): 0.467 h; half-life, h (6.0 M HCl, 80 °C): too unstable
6 | O=C([O-])CN1CCN2CCN(CC(=O)[O-])CCN(CC1)Cc1cccc(n1)-c1cnnn1Cc1cc(-c3ccccc3)cc(n1)C2.[Gd+3] [Ph{Gd}] |  | too stable |  |  |  |  | half-life, h (0.1 M HCl, 25 °C): too stable; half-life (0.1 M HCl, 80 °C): 2470 h; half-life (1.0 M HCl, 80 °C): 30.4 h; half-life (6.0 M HCl, 80 °C): 0.17 h
7 | O=C([O-])CN1CCN2CCN(CC(=O)[O-])CCN(CC1)Cc1cccc(n1)-c1cnnn1Cc1cc(-c3ccccc3)cc(n1)C2.[Ca+2] [Ph{Ca}] |  |  | too unstable | too unstable | 38.9 | too unstable | 
8 | O=C([O-])CN1CCN(CC(=O)[O-])CCN(CC(=O)[O-])C(Cc2ccc([N+](=O)[O-])cc2)CN(CC(=O)[O-])CC1.[Lu+3] (stereo not shown) [[Lu(NO2BnDOTA)], reference compound] |  |  |  |  |  | too unstable | intact chelate (ratio NO2BnDOTA/[Lu(NO2BnDOTA)]) (0.1 M HCl at 80 °C after 1 h, HPLC-UV, initial and repeated injection identical): 76%
9 | O=C([O-])CN1CCN(CC(=O)[O-])CCN(CC(=O)[O-])C(Cc2ccc([N+](=O)[O-])cc2)CN(CC(=O)[O-])CC1.[Gd+3] (stereo not shown) [[Gd(NO2BnDOTA)], reference compound] |  |  |  |  |  | too unstable | 
10 | O=C([O-])CN1CCN2CCN(CC(=O)[O-])CCN(CC1)Cc1cccc(n1)-c1cnnn1Cc1cc(-c3ccccc3)cc(n1)C2.[Y+3] [Ph{Y}] |  | too stable |  |  | 100.0 |  | 
11 | O=C([O-])CN1CCN(CC(=O)[O-])CCN(CC(=O)[O-])C(Cc2ccc([N+](=O)[O-])cc2)CN(CC(=O)[O-])CC1.[La+3] (stereo not shown) [[La(NO2BnDOTA)], reference compound] |  |  |  | too unstable |  | too unstable | 
